Source: article PMC11296140, “Cardenolides in the defensive fluid of adult large milkweed bugs have differential potency on vertebrate and invertebrate predator Na^+/K^+-ATPases” (Royal Society Open Science, 2024)

Tests used:
[1] = system: black-headed grosbeak Na^+/K^+-ATPase; test: Na+/K+-ATPase inhibition assay, recombinant black-headed grosbeak enzyme expressed in Sf9 cells; format: biochemical, Pheucticus melanocephalus; settings: for IC50: black-headed grosbeak enzyme, toxicity criteria of Agrawal et al.; for times less inhibitory than for pig: black-headed grosbeak vs porcine enzyme, IC50 fold difference
Description: Pheucticus melanocephalus (black-headed grosbeak) ATPA1 and ATPB1 genes were synthesised (GeneArt; Invitrogen), codon optimised for Spodoptera frugiperda and cloned by GeneArt (Invitrogen) in pFastBac Dual plasmid with ATP1B1 under p10 promoter and ATP1A1 under PPH promoter. Final plasmids were verified by sequencing (accession number 196465).
(§1) Preparations of Na^+/K^+-ATPases were obtained by homogenization of dissected brains (T. castanotis, zebra finch, and H. membranacea, giant Asian mantid), from commercially obtained enzyme (Sus scrofa domesticus, domestic pig), and expression of ATP1A1 and ATP1B1 subunits of the Na^+/K^+-ATPase of the black-headed grosbeak in insect Sf9 cells (Invitrogen).
Recombinant Na^+/K^+-ATPases were expressed after infection of Sf9 cells with P0 virus stock following the optimized baculovirus expression system described by Scholz and Suppmann. The cells were pelleted by centrifugation, resuspended and sonicated to disrupt membranes and further centrifuged to remove cell debris. Cell membranes were pelleted by ultracentrifugation of the supernatant and finally resuspended in Milli-Q water (electronic supplementary material, method S2). Prior to the Na^+/K^+-ATPase inhibition assay, the black-headed grosbeak protein was verified by SDS–PAGE/Western blotting following the methods of Mohammadi et al. (see the electronic supplementary material, figure S1) and quantified by ELISA (see the electronic supplementary material, method S2d).
(§2) The inhibitory effects of increasing concentrations of four cardenolides (ouabain, glucopyranosyl frugoside, frugoside and gofruside) on the black-headed grosbeak, zebra finch and giant Asian mantids were determined by photometric measurement of inorganic phosphate released from enzymatic ATP hydrolysis while subtracting the background ATPase activity following Petschenka et al. (see the electronic supplementary material, method S2e). The assessment of the inhibitory impact of glucopyranosyl calotropin was limited to the black-headed grosbeak and zebra finch species. This stemmed from the restricted availability of the compound, which only permitted testing on two predator pumps. The inhibitory effects of the five compounds for the porcine ATPase were taken from Rubiano-Buitrago et al. for comparison. All assays were run in three biological replicates, and the average of two technical replicates of each biological replicate was used for subsequent statistical analyses. Raw data are available in the data repository.
For cardenolide inhibition, we converted the calibrated absorbance values to the percentage of non-inhibited Na^+/K^+-ATPase activity based on measurements from the control wells. We fitted inhibition curves by nonlinear fitting using a four-parameter logistic curve, with the top and bottom asymptotes set to 100 and 0, respectively, using the nlsLM function of the minipack.lm library in R [47]. From this we calculated the half maximal inhibitory concentration (IC50) values for each biological replicate. We compared the log10 IC50 values of individual cardenolides for each Na^+/K^+-ATPase enzyme using a linear model, testing the interaction between predator enzyme and cardenolide, and compared the inhibitory capacity of each compound pairwise using Tukey’s post hoc test. We calculated the fold differences between the IC50 values of individual cardenolides for black-headed grosbeak, zebra finch and giant Asian mantid versus the IC50 values on the porcine enzyme.

[2] = molecular target: zebra finch Na^+/K^+-ATPase; test: Na+/K+-ATPase inhibition assay, zebra finch brain lysate; format: biochemical, Taeniopygia castanotis; settings: for IC50: zebra finch enzyme, toxicity criteria of Agrawal et al.
Description: Taeniopygia castanotis (zebra finch) brain tissues were obtained from a breeding colony at the University of St Andrews, UK, under Home Office licence 70/8159. Individual brains were dissected and flash-frozen on dry ice before being shipped from St Andrews to the Max Planck Institute for Chemical Ecology, Jena, Germany, where they were kept at −80°C until used in the assays.
as §1
(§3) We sliced and weighed 5 mg from three different zebra finch brains and dissected the head capsule of five female giant Asian mantids to obtain the central body with intact optic lobes. Neural tissues were transferred to a 1 ml glass grinder (Wheaton Dounce tissue grinder, 1 ml, no. 357538) and homogenized in 500 μl distilled water. Zebra finch homogenates were transferred to a 50 ml Falcon tube on ice and resuspended with 15 ml resuspension buffer (0.25 M sucrose, 2 mM ethylenediaminetetraacetic acid and 25 mM HEPES/Tris; pH 7.0). Samples were sonicated at 85 W (Fisherbrand Model 120 Sonic Dismembrator, no. 12337338) for three 45 s intervals at 0°C, followed by centrifugation for 30 min at 10 000g (Sigma 3–18K, no. 10290) at 4°C to remove debris. The supernatant was collected and further centrifuged for 60 min at 100 000g at 4°C (Optima Max-XP tabletop ultracentrifuge, no. 393315) to isolate the membrane fraction. The pelleted membranes were washed twice and resuspended in 1 ml Milli-Q water (Milli-Q direct water purification system, Merck, no. C85358) and stored at −20°C. Giant Asian mantid homogenates were frozen to −80°C and then freeze-dried overnight and then resuspended in 1800 μl distilled water. Each sample was divided into aliquots of 600 μl and sonicated twice in an ice water bath (Bandelin Sonorex, no. Z659584) for 5 min. Samples were centrifuged at 3000 r.p.m. for 5 min and used to perform functional assays.
as §2
(§4) For cardenolide inhibition, we converted the calibrated absorbance values to the percentage of non-inhibited Na^+/K^+-ATPase activity based on measurements from the control wells. We fitted inhibition curves by nonlinear fitting using a four-parameter logistic curve, with the top and bottom asymptotes set to 100 and 0, respectively, using the nlsLM function of the minipack.lm library in R [47]. From this we calculated the half maximal inhibitory concentration (IC50) values for each biological replicate. […]

[3] = system: O. fasciatus target site Na^+/K^+-ATPase; settings: cited from earlier work
[4] = molecular target: giant Asian mantid Na^+/K^+-ATPase; test: Na+/K+-ATPase inhibition assay, giant Asian mantid neural tissue lysate; format: biochemical, Hierodula membranacea; settings: for IC50: giant Asian mantid enzyme, toxicity criteria of Agrawal et al.; for potency compared with the porcine enzyme (in words): giant Asian mantid vs pig, log10 IC50, Tukey post hoc
Description: Hierodula membranacea were obtained from M&M Wust—Mantids and More (Muhlheim am Main, Germany). Twenty-five individuals were obtained at the L4 stage and reared in individually double-ventilated boxes (19 × 19 × 19 cm). We provided them with greenbottle fly pupae as a food source, twice per week (two pupae during the nymph stages and three when they reached the adult stage). Mantids were sprayed with water every 2 days for hydration. The mantids were kept in an incubator (Snijders Scientific premium, Tilburg, The Netherlands, with an Imago 500 JUMO controller, Fulda, Germany) at 28°C and 70% humidity with an 18 L : 6 D cycle and a temperature of 18°C at night.
as §1, §3, §2
as §4, with “[47].” for “[47]. From this we calculated the half maximal inhibitory concentration (IC50) values for each biological replicate.”

[5] = zebra finch vs porcine enzyme, IC50 fold difference

| Compound | IC50 [1] [nM] | times less inhibitory than for pig [1] [times] | IC50 [2] [nM] | times less inhibitory than for pig [2, 5] [times] | potency towards the bug's own target site (in words) [3] | IC50 [4] [nM] | potency compared with the porcine enzyme (in words) [4] | times less inhibitory than for pig ([4]; giant Asian mantid vs porcine enzyme, IC50 fold difference) [times] | inhibition of the enzyme (in words) ([2]; sensitive vertebrate enzymes) | potency compared with the porcine enzyme (in words) ([1]; black-headed grosbeak vs pig, log10 IC50, Tukey post hoc) | times more inhibitory than to pig [2, 5] [times] | times more inhibitory than to pig ([4]; giant Asian mantid vs porcine enzyme, IC50 fold difference, not significant at alpha 0.05) [times] | inhibition of the enzyme (in words) ([1]; putatively resistant vertebrate predator) |
| --- | --- | --- | --- | --- | --- | --- | --- | --- | --- | --- | --- | --- | --- |
| C[C@H]1OC(O[C@H]2CC[C@@]3(CO)[C@H](CC[C@@H]4[C@@H]3CC[C@]3(C)[C@@H](C5=CC(=O)OC5)CC[C@]43O)C2)[C@H](O)[C@H](O)[C@@H]1O (stereo partly drawn) [frugoside] | < 10000 | 6.8 | < 1000 | 2.6 | the most inhibitory | < 1000 | not significantly different in potency | – | – | – | – | – | – |
| C[C@@H]1O[C@@H](O[C@H]2C[C@@H](O)[C@]3(CO)[C@H]4[C@H](O)C[C@]5(C)[C@@H](C6=CC(=O)OC6)CC[C@]5(O)[C@@H]4CC[C@]3(O)C2)[C@H](O)[C@H](O)[C@H]1O [ouabain, reference compound] | – | 18.9 | – | 6.8 | – | – | – | 4.3 | – | – | – | – | – |
| glucopyranosyl calotropin | – | 15.1 | – | 3.4 | – | – | – | – | effective inhibitor | – | – | – | – |
| glucopyranosyl frugoside | < 10000 | – | < 1000 | – | – | – | – | – | – | not significantly different in potency | 28.3 | 2.3 | – |
| gofruside | – | 352.5 | – | 12.7 | among the weakest inhibitors | < 1000 | did not differ in inhibitory potential | – | – | – | – | – | weakest inhibitor |
